Measured values from patent US8883963B2 (Cadila Healthcare Limited, priority 2007, dated 2014).

Legend:
Human GLP-1 receptor = target: T1, Human GLP-1 receptor (Homo sapiens, UniProt P43220); assay: In vitro Human GLP-1 R agonist activity (cyclic AMP determination) in CHO/human GLP1R cells; format: cell-based
T1 construct: The full-length cDNA was cloned in pcDNA3.1(+); expressed in transfected cells

human glucagon receptor = target: T2, human glucagon receptor (Homo sapiens, UniProt P47871); assay: In vitro human glucagon antagonist activity (inhibition of cAMP production) in CHO/human glucagon R cells; format: cell-based; settings: with saturated concentration of glucagon peptide
T2 construct: The full-length cDNA was cloned in pcDNA3.1 (Invitrogen); expressed in transfected cells

DPP IV = DPP IV (Homo sapiens, UniProt P27487); assay: Stability against DPP IV enzyme; format: in vitro ADME; settings: 37° C.; for % degradation of peptidomimetics in 24 h when incubated with DPP-IV enzyme: 2 μM peptidomimetic
Protocol: (§1) Reactions were terminated by the addition of TFA/H2O (15 mL, 10% (v/v)). […] The column was equilibrated with TFA/H20, at a flow rate of 1 mL/min.

[1] = Stability in simulated gastric fluid; format: in vitro ADME; settings: 2 μM peptidomimetic, simulated gastric fluid pH 1.5, 37° C.; for half-life at 2 μM: read-out: half-life (t1/2) when incubated with simulated gastric fluid
Protocol: as §1

[2] = Stability in liver microsomes; format: in vitro ADME; settings: 2 μM peptidomimetic, human liver microsomes, 37° C.; for half-life at 2 μM: pH 7.8, read-out: half-life (t1/2) when incubated with liver microsomes
Protocol: as §1

[3] = Stability in simulated intestinal fluid; format: in vitro ADME; settings: 2 μM peptidomimetic, simulated intestinal fluid pH 7.5, 37° C.; for half-life at 2 μM: read-out: half-life (t1/2) when incubated with simulated intestinal fluid
Protocol: as §1

[4] = test system: RIN5F (Rat Insulinoma) cells; assay: In vitro glucose-dependent insulin secretion (RIN5F cell assay screening protocol); format: cell-based; settings: 16.7 mM glucose load
[5] = Stability in human plasma; format: in vitro ADME; settings: 2 μM peptidomimetic, pooled human plasma, 37° C.
Protocol: as §1

Chain of DPP IV (P27487 whole entry, species assumed): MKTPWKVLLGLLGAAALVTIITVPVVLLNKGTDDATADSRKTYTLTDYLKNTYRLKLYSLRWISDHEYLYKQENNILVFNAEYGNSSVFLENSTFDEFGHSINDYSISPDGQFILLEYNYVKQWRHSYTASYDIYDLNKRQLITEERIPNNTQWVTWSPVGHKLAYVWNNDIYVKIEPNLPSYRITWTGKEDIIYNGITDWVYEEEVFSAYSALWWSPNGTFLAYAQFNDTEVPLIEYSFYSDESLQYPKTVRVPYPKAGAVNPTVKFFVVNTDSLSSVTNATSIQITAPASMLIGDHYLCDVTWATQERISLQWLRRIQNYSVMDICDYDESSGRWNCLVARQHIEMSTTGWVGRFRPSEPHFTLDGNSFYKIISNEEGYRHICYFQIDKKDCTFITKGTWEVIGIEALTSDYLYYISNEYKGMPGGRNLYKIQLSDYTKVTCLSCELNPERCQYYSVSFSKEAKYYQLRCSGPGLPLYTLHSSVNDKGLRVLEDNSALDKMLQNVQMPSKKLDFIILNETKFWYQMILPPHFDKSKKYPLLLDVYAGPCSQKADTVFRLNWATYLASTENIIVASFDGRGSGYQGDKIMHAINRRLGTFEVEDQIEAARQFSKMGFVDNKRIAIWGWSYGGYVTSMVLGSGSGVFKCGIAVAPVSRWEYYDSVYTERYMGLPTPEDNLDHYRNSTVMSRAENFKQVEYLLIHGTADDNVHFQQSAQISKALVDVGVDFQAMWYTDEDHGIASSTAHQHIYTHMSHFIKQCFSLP
T2 sequence (P47871 26-477): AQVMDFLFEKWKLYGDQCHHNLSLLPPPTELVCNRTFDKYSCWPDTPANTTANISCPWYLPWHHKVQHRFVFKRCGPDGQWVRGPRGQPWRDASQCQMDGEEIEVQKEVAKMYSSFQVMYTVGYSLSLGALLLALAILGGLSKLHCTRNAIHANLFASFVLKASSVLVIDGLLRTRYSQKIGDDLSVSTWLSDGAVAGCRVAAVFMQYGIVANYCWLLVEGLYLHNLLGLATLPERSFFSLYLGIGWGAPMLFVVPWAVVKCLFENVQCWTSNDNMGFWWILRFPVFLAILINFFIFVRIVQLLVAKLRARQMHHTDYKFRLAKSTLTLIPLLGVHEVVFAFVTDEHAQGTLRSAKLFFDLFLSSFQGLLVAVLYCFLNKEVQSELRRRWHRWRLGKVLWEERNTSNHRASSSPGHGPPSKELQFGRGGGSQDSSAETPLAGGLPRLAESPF
T1 sequence (P43220 24-463): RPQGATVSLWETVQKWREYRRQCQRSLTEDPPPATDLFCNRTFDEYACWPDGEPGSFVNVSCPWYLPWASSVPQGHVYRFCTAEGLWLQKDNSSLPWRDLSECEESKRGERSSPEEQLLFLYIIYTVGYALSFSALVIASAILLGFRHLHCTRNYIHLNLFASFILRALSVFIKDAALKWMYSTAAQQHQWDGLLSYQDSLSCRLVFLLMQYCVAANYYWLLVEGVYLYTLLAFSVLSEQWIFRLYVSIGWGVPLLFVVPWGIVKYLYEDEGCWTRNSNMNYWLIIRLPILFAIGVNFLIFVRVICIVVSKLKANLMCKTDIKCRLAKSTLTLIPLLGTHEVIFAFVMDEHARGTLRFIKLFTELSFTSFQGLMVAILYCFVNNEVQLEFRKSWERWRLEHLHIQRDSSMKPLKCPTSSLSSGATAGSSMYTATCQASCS

Row | Structure (SMILES) | Human GLP-1 R activity (cAMP release), % activity with respect to control (Human GLP-1 receptor; 1 nM test compound) [%] | Human GLP-1 R activity (cAMP release), % activity with respect to control (Human GLP-1 receptor; 10 nM test compound) [%] | Human GLP-1 R activity (cAMP release), % activity with respect to control (Human GLP-1 receptor; 100 nM test compound) [%] | Human GLP-1 R activity (cAMP release), % activity with respect to control (Human GLP-1 receptor; 1 μM test compound) [%] | Human GLP-1 R activity (cAMP release), % activity with respect to control (Human GLP-1 receptor; 10 μM test compound) [%] | Human Glucagon receptor antagonistic activity shown as inhibition of cAMP production of Glucagon peptide (human glucagon receptor; 1 nM test compound) [pmol/ml/μg prt] | Human Glucagon receptor antagonistic activity shown as inhibition of cAMP production of Glucagon peptide (human glucagon receptor; 10 nM test compound) [pmol/ml/μg prt] | Human Glucagon receptor antagonistic activity shown as inhibition of cAMP production of Glucagon peptide (human glucagon receptor; 100 nM test compound) [pmol/ml/μg prt] | Human Glucagon receptor antagonistic activity shown as inhibition of cAMP production of Glucagon peptide (human glucagon receptor; 1 μM test compound) [pmol/ml/μg prt] | Human Glucagon receptor antagonistic activity shown as inhibition of cAMP production of Glucagon peptide (human glucagon receptor; 10 μM test compound) [pmol/ml/μg prt] | % degradation of peptidomimetics in 24 h when incubated with DPP-IV enzyme (DPP IV) [%] | % degradation of peptidomimetics in 24 h when incubated with simulated gastric fluid [1] [%] | half-life at 2 μM [1] [min] | % degradation of peptidomimetics in 24 h when incubated with liver microsomes [2] [%] | half-life at 2 μM [2] [min] | % degradation of peptidomimetics in 24 h when incubated with simulated intestinal fluid [3] [%] | half-life at 2 μM [3] [min] | Insulin secretion ([4]; 0.1 nM test compd.) [pg/µg/h] | Insulin secretion ([4]; 1 nM test compd.) [pg/µg/h] | Insulin secretion ([4]; 10 nM test compd.) [pg/µg/h] | other results
1 | CCc1cc(OC)ccc1-c1ccc(CC(NC(=O)[C@H](CC(=O)O)NC(=O)[C@H](CO)NC(=O)[C@@H](NC(=O)[C@H](Cc2ccccc2)NC(=O)[C@@H](NC(=O)CNC(=O)[C@H](CCC(N)=O)NC(=O)[C@H](CO)NC(=O)[C@@H](N)Cc2c[nH]cn2)[C@@H](C)O)[C@@H](C)O)C(=O)NC(CCCc2ccccc2F)C(N)=O)cc1 (single isomer, unassigned) [compound 45] | 51 ± 0.03 | 86 ± 0.40 | 91 ± 0.21 | 99 ± 0.32 | 99 ± 0.21 | 15 ± 0.11 | 12 ± 0.13 | 8 ± 0.09 | 4 ± 0.01 | 2 ± 0.08 | 77 | 100 | 30 | 100 | 30 | 100 | 30 | 11.8 ± 0.50 | 14.9 ± 0.11 | 27.9 ± 0.31 | half-life (t1/2) when incubated with human plasma [5]: (9) h; % degradation of peptidomimetics in 24 h when incubated with human plasma [5]: 80%
2 | CCc1cc(OC)ccc1-c1ccc(CC(NC(=O)[C@H](CC(=O)O)NC(=O)[C@H](CO)NC(=O)[C@@H](NC(=O)[C@H](Cc2ccccc2)NC(=O)[C@@H](NC(=O)CNC(=O)C(CCC#N)NC(=O)C(C)(C)NC(=O)[C@@H](N)Cc2c[nH]cn2)[C@@H](C)O)[C@@H](C)O)C(=O)NC(CCCc2ccccc2F)C(N)=O)cc1 (single isomer, unassigned) [compound 77] | 40 ± 0.09 | 81 ± 0.07 | 87 ± 0.04 | 95 ± 0.01 | 98 ± 0.08 | 20 ± 0.06 | 18 ± 0.09 | 16 ± 0.01 | 14 ± 0.03 | 12 ± 0.01 | 74 | 100 | 30 | 100 | 30 | 100 | 30 | 15.6 ± 0.33 | 21.8 ± 0.16 | 35.6 ± 0.26 | half-life (t1/2) when incubated with human plasma [5]: (9) h; % degradation of peptidomimetics in 24 h when incubated with human plasma [5]: 75%
3 | CCc1cc(OC)ccc1-c1ccc(CC(NC(=O)[C@H](CC(=O)O)NC(=O)[C@H](CO)NC(=O)[C@@H](NC(=O)[C@H](Cc2ccccc2)NC(=O)[C@@H](NC(=O)CNC(=O)C(CCC#N)NC(=O)C(C)(C)NC(=O)[C@@H](N)Cc2c[nH]cn2)[C@@H](C)O)[C@@H](C)O)C(=O)NC(CCCc2ccccc2C(F)(F)F)C(N)=O)cc1 (single isomer, unassigned) [compound 79] | 62 ± 0.11 | 94 ± 0.09 | 99 ± 0.06 | 99 ± 0.14 | 99 ± 0.19 | 6 ± 0.02 | 5 ± 0.03 | 2 ± 0.61 | 0 | 0 | 86 | 100 | 30 | 100 | 30 | 100 | 30 | 16.5 ± 0.12 | 22.7 ± 0.17 | 36.5 ± 0.05 | half-life (t1/2) when incubated with human plasma [5]: (9) h; % degradation of peptidomimetics in 24 h when incubated with human plasma [5]: 70%
4 | CCc1cc(OC)ccc1-c1ccc(CC(NC(=O)[C@H](CC(=O)O)NC(=O)[C@H](CO)NC(=O)[C@@H](NC(=O)[C@H](Cc2ccccc2)NC(=O)[C@@H](NC(=O)CNC(=O)C(CCC#N)NC(=O)C(C)(C)NC(=O)[C@@H](N)Cc2c[nH]cn2)[C@@H](C)O)[C@@H](C)O)C(=O)NC(CCCc2ccc(OC)cc2Cl)C(N)=O)cc1 (single isomer, unassigned) [compound 84] | 38 ± 0.11 | 77 ± 0.16 | 85 ± 0.11 | 94 ± 0.08 | 97 ± 0.05 | 4 ± 0.01 | 2 ± 0.17 | 0 | 0 | 0 | 00 | 45 | 240 | 85 | 120 | 00 | > 1440 | 12.1 ± 0.42 | 14.6 ± 0.41 | 27.8 ± 0.46 | half-life at 2 μM (DPP IV; DPP IV enzyme, pH 7.8, 2 μM peptidomimetic, read-out: half-life (t1/2) when incubated with DPP-IV enzyme): > 1440 min; % degradation of peptidomimetics in 24 h when incubated with human plasma [5]: 00%; half-life at 2 μM ([5]; pH 7.8, read-out: half-life (t1/2) when incubated with human plasma): > 1440 min
